Experimental findings from patent US20090054470A1, “USE OF MITOCHONDRIAL ELECTRON TRANSPORT INHIBITORS TO CONTROL FOULING ORGANISMS” (priority 2005, published 2009) are described below.

In assay [1] the test system is animal fouling. Nature of the assay: Field evaluation of marine antifouling activity (painted PVC boards immersed in sea water). Particulars: Oosterschelde at Bruinisse, average of two scores; for Fouling scores after x weeks: vinylite paint on PVC panels; for Fouling scores after 12 weeks: rosin paint on PVC panels. From the text:
2. Field Evaluation of Marine Antifouling Activity […]
Composition vinylite paint (% w/w): 9.1% test compound (74% in the dried coating), 3.2% vinylite, 87.7% cyclohexanone.
Composition rosin paint (% w/w): 6.7% test compound (18.4% in the dried coating), 34.9% rosin (69.6% in xylene), 6.3% vinyl resin, 5.7% tritolyl phosphate, 45.0% methyl isobutylketone and 1.4% xylene.
The PVC boards (10×2×0.5 cm) were painted twice to obtain a coating layer of 140 g/m^2 having a thickness of 50 μm and dried for two weeks before immersion in sea water. The exact quantity of test compound on each board was determined by comparing the initial and final weights of the PVC boards. The PVC boards were placed in a frame and suspended from the bottom of a raft at a depth of 0.6 m below the sea water surface level.
Rating system to evaluate surface fouling:
score 0: no growth on the panel score 1: up to 20% of the surface covered by fouling organisms score 2: between 21% and 40% of the surface covered by fouling organisms score 3: between 41% and 60% of the surface covered by fouling organisms score 4: between 61% and 80% of the surface covered by fouling organisms score 5: more than 81% of the surface covered by fouling organisms
Figures are an average of two scores (back and front of test panel).

Assay [2] relates to Artemia salina instar II larvae. The experiment in a line: In vitro efficacy against Artemia salina (larval survival). The assay is classed as in vivo. Here is the method:
1. In Vitro Efficacy Against Artemia salina
The crustaceous marine animal Artemia salina was used as a model organism for other marine fouling organisms.
An artificial seawater medium inoculated with approximately 30 Artemia salina instar II larvae was introcuced in each well of a 24 well microtiter plate (2 ml per well). This culture was incubated with the test compound dissolved in dimethylsulfoxide (8000 ppm stock solution in DMSO) in order to have a final concentration of the test compound ranging from 0.027 ppm to 20 ppm in 24 steps. Survival of the Artemia salina larvae was evaluated after 24 and 48 hours. Zinc pyrithione was used as a reference art known antifouling agent and a DMSO solution without test compound was used as control.
The ECX value (in […]=ppm): lowest concentration of the test compound at which moderate activity (reduced vitality of Artemia salina larvae) was observed and has been listed below in Table 1.

Regarding `CC(C)(C)c1ccc(CCOc2ncnc3ccccc23)cc1` [fenazaquin], the “Fouling scores after x weeks” value is 0 in assay [1] (4 weeks); 0 in assay [1] (8 weeks); 3 (score 3: between 41% and 60% of the surface covered by fouling organisms) in assay [1] (15 weeks). The “ECX (lowest concentration at which reduced vitality of Artemia salina larvae)” value in assay [2] (24 hours) and in assay [2] (48 hours) was 0.84 mg/l (=ppm) each time. Moreover, the “MIC (lowest concentration at which all Artemia salina larvae dead)” value (shortened to “MIC”) in assay [2] (24 hours) and in assay [2] (48 hours) was 1.5 mg/l (=ppm) each time.
In the case of `CC(C)(C)c1ccc(CSc2cnn(C(C)(C)C)c(=O)c2Cl)cc1` [pyridaben], the “Fouling scores after 12 weeks” value in assay [1] came to 1.5. In addition, the “ECX (lowest concentration at which reduced vitality of Artemia salina larvae)” value in assay [2] (24 hours) and in assay [2] (48 hours) was 0.36 mg/l (=ppm) in each case. Besides, the “MIC” value in assay [2] (24 hours) was 2 mg/l (=ppm); in assay [2] (48 hours), 0.48 mg/l (=ppm).
Consider `CCc1nn(C)c(C(=O)NCc2ccc(C(C)(C)C)cc2)c1Cl` [tebufenpyrad], for which the “Fouling scores after 12 weeks” value in assay [1] is given as 1.5. Besides, in assay [2] (24 hours), the “ECX (lowest concentration at which reduced vitality of Artemia salina larvae)” value was 1.13 mg/l (=ppm) and the “MIC” value was 2 mg/l (=ppm). Moreover, in assay [2] (48 hours), the “ECX (lowest concentration at which reduced vitality of Artemia salina larvae)” value was 0.84 mg/l (=ppm) and the “MIC” value is recorded as 1.5 mg/l (=ppm).
For Zinc pyrithione, in assay [2] (24 hours), the “ECX (lowest concentration at which reduced vitality of Artemia salina larvae)” value is 8.44 mg/l (=ppm) and the “MIC” value was 20 mg/l (=ppm). Moreover, in assay [2] (48 hours), the “ECX (lowest concentration at which reduced vitality of Artemia salina larvae)” value is recorded as 6.33 mg/l (=ppm) and the “MIC” value was 11.25 mg/l (=ppm).
